Results on 66 compounds are retold here after patent US10111875B2, “Pyrrolopyrimidine compounds and uses thereof” (HUTCHISON MEDIPHARMA LIMITED, priority 2010, dated 2018).

The target in this assay is Recombinant human JAK1 catalytic domain (Homo sapiens (Human), UniProt P23458). Description: JAK1 kinase assay (Z'-LYTE Tyr 6 Peptide). Type of assay: biochemical. The note with it: JAK1 kinase assay, 0.3 uM concentration; read-out: inhibition percentage (IR %). The method, then: JAK1/2/3 kinase assay are performed in vitro using Kit-Tyr 6 Peptide (Invitrogen, Cat. No. PV4122). TYK2 kinase assay are performed in vitro using Z′-LYTE™ Kinase Assay Kit-Tyr 3 Peptide (Invitrogen, Cat. No. PV3192). […] All compounds are initially tested at 8 different concentrations (1 μM down to 0.0003 μM) using a 1:3 serial dilution scheme.
Sequence of Recombinant human JAK1 catalytic domain (P23458 875-1153): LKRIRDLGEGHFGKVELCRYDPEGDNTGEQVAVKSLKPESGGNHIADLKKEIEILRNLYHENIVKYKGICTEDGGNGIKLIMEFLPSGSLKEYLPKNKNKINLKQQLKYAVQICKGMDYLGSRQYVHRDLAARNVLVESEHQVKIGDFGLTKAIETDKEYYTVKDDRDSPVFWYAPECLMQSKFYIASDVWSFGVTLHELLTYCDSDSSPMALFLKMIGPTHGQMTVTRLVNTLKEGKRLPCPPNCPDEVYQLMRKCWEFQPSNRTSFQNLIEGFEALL
With `CN(c1ccc(C(=O)NC2c3ccccc3C[C@H]2O)cc1F)[C@@H]1CCN(c2ncnc3[nH]ccc23)C1` (single isomer, unassigned) [Compound 204], the inhibition at 0.3 µM was 50 to 100%.
Take `CCCC(=O)N(C)[C@@H]1CCN(c2ncnc3[nH]ccc23)C1` [Compound 3]: the inhibition at 0.3 µM lay in the range of 50 to 100%.
For the compound `COCC(=O)N(C)[C@@H]1CCN(c2ncnc3[nH]ccc23)C1` [Compound 4], the inhibition at 0.3 µM was in the range of 20 to 50%.
With `CN(C(=O)c1cccnc1)[C@@H]1CCN(c2ncnc3[nH]ccc23)C1` [Compound 5], the inhibition at 0.3 µM lay in the range of 20 to 50%.
The same measure for `CN(C(=O)C1(C#N)CC1)[C@@H]1CCN(c2ncnc3[nH]ccc23)C1` [Compound 6]: 50 to 100%; for `CN(C(=O)c1cccc(C#N)c1)[C@@H]1CCN(c2ncnc3[nH]ccc23)C1` [Compound 8]: 20 to 50%.
The result for `CN([C@@H]1CCN(c2ncnc3[nH]ccc23)C1)S(=O)(=O)c1ccc(C#N)cc1` [Compound 9] reads 20 to 50%; that for `CN([C@@H]1CCN(c2ncnc3[nH]ccc23)C1)S(=O)(=O)c1cccc(C#N)c1` [Compound 10], 50 to 100%.
The same measure for `CN([C@@H]1CCN(c2ncnc3[nH]ccc23)C1)S(=O)(=O)c1ccc([N+](=O)[O-])cc1` [Compound 11]: 20 to 50%; for `CN([C@@H]1CCN(c2ncnc3[nH]ccc23)C1)S(=O)(=O)c1cccc([N+](=O)[O-])c1` [Compound 12]: 50 to 100%.
Turning to `COc1ccc(S(=O)(=O)N(C)[C@@H]2CCN(c3ncnc4[nH]ccc34)C2)cc1` [Compound 13], the inhibition at 0.3 µM was in the range of 20 to 50%.
`CN(C)S(=O)(=O)N(C)[C@@H]1CCN(c2ncnc3[nH]ccc23)C1` [Compound 14]: the inhibition at 0.3 µM fell in the range of 50 to 100%.
Consider `CN([C@@H]1CCN(c2ncnc3[nH]ccc23)C1)S(=O)(=O)N1CCCC1` [Compound 15], for which the inhibition at 0.3 µM lay in the range of 50 to 100%.
The same measure for `CN(C(=O)Nc1cccc(C#N)c1)[C@@H]1CCN(c2ncnc3[nH]ccc23)C1` [Compound 16, (R)-1-(1-(7H-pyrrolo[2,3-d]pyrimidin-4-yl)pyrrolidin-3-yl)-3-(3-cyanophenyl)-1-methylurea]: 50 to 100%; for `CN(C(=O)Nc1ccc(C#N)cc1)[C@@H]1CCN(c2ncnc3[nH]ccc23)C1` [Compound 17]: 50 to 100%.
The result for `CN(C(=O)CC1CC1)[C@@H]1CCN(c2ncnc3[nH]ccc23)C1` [Compound 19] reads 20 to 50%; that for `CN(C(=O)Cc1ccc(C#N)cc1)[C@@H]1CCN(c2ncnc3[nH]ccc23)C1` [Compound 20], 50 to 100%; that for `CN(C(=O)CCc1c(Cl)cccc1Cl)[C@@H]1CCN(c2ncnc3[nH]ccc23)C1` [Compound 21], 50 to 100%.
The same measure for `CN(C(=O)CO)[C@@H]1CCN(c2ncnc3[nH]ccc23)C1` [Compound 24]: 50 to 100%; for `CN(C(=O)CS(C)(=O)=O)[C@@H]1CCN(c2ncnc3[nH]ccc23)C1` [Compound 27]: 50 to 100%; for `CN([C@@H]1CCN(c2ncnc3[nH]ccc23)C1)S(=O)(=O)C1CCCCC1` [Compound 28]: 50 to 100%.
With `CN(C(=O)N[C@@H]1c2ccccc2C[C@H]1O)[C@@H]1CCN(c2ncnc3[nH]ccc23)C1` [Compound 29, 1-((R)-1-(7H-pyrrolo[2,3-d]pyrimidin-4-yl)pyrrolidin-3-yl)-3-((1R,2R)-2-hydroxy-2,3-dihydro-1H-inden-1-yl)-1-methylurea], the inhibition at 0.3 µM fell in the range of 50 to 100%.
The same measure for `CN(C(=O)Nc1ccc(C(F)(F)F)cc1)[C@@H]1CCN(c2ncnc3[nH]ccc23)C1` [Compound 30]: 50 to 100%; for `CN(C(=O)Nc1ccc(C#N)c(F)c1)[C@@H]1CCN(c2ncnc3[nH]ccc23)C1` [Compound 31]: 50 to 100%; for `CN(C(=O)Nc1ccc(Cl)cc1)[C@@H]1CCN(c2ncnc3[nH]ccc23)C1` [Compound 33]: 50 to 100%.
The same measure for `CN(C(=O)N1CCC[C@@H]1C(N)=O)[C@@H]1CCN(c2ncnc3[nH]ccc23)C1` [Compound 35]: 20 to 50%; for `CN(C(=O)N1CCC[C@@H]1C#N)[C@@H]1CCN(c2ncnc3[nH]ccc23)C1` [Compound 38]: 50 to 100%; for `C#CCN(C1CCCC1)[C@@H]1CCN(c2ncnc3[nH]ccc23)C1` [Compound 39, (R)—N-cyclopentyl-N-(prop-2-ynyl)-1-(7H-pyrrolo[2,3-d]pyrimidin-4-yl)pyrrolidin-3-amine]: 20 to 50%.
The same measure for `C=CCN(C1CCCC1)[C@@H]1CCN(c2ncnc3[nH]ccc23)C1` [Compound 40]: 50 to 100%; for `N#Cc1ccc(N(C2CC2)[C@@H]2CCN(c3ncnc4[nH]ccc34)C2)nc1` [Compound 41]: 50 to 100%; for `COc1nc(N(C)[C@@H]2CCN(c3ncnc4[nH]ccc34)C2)ccc1C#N` [Compound 42]: 50 to 100%.
With `CN([C@@H]1CCN(c2ncnc3[nH]ccc23)C1)S(=O)(=O)c1c(F)cccc1F` [Compound 43], the inhibition at 0.3 µM fell in the range of 20 to 50%.
`CCN(c1ccc(S(C)(=O)=O)cn1)[C@@H]1CCN(c2ncnc3[nH]ccc23)C1` [Compound 44]: the inhibition at 0.3 µM lay within 20 to 50%.
The same measure for `N#CCN(C1CCCC1)[C@@H]1CCN(c2ncnc3[nH]ccc23)C1` [Compound 45]: 50 to 100%; for `N#Cc1ccc2c(c1)CCN2C1CCN(c2ncnc3[nH]ccc23)C1` (stereo not drawn) [Compound 46]: 50 to 100%.
Take `CCS(=O)(=O)N(C)[C@@H]1CCN(c2ncnc3[nH]ccc23)C1` [Compound 48]: the inhibition at 0.3 µM is 50 to 100%.
The same measure for `CC(C)S(=O)(=O)N(C)[C@@H]1CCN(c2ncnc3[nH]ccc23)C1` [Compound 49]: 50 to 100%; for `N#CCN(C1CCC1)[C@@H]1CCN(c2ncnc3[nH]ccc23)C1` [Compound 52]: 50 to 100%.
Take `CN(C1CCCC1)[C@@H]1CCN(c2ncnc3[nH]ccc23)C1` [Compound 53]: the inhibition at 0.3 µM was in the range of 50 to 100%.
Consider `C#CCN(C1CCCCC1)[C@@H]1CCN(c2ncnc3[nH]ccc23)C1` [Compound 54], for which the inhibition at 0.3 µM lay within 20 to 50%.
The same measure for `N#CCN(C1CC1)[C@@H]1CCN(c2ncnc3[nH]ccc23)C1` [Compound 55]: 50 to 100%; for `C#CCN(C1CCOC1)[C@@H]1CCN(c2ncnc3[nH]ccc23)C1` (stereo partly drawn) [Compound 56]: 50 to 100%; for `CN([C@@H]1CCN(c2ncnc3[nH]ccc23)C1)S(=O)(=O)C1CC1` [Compound 57]: 20 to 50%.
The same measure for `C#CCN(c1ccc(S(C)(=O)=O)cn1)[C@@H]1CCN(c2ncnc3[nH]ccc23)C1` [Compound 58]: 20 to 50%; for `CN(C(=O)N1CCCC1C(F)(F)F)[C@@H]1CCN(c2ncnc3[nH]ccc23)C1` (stereo partly drawn) [Compound 59]: 50 to 100%.
The result for `CN(c1ccc(C#N)nn1)[C@@H]1CCN(c2ncnc3[nH]ccc23)C1` [Compound 60] reads 50 to 100%; that for `CN(c1ccc(S(C)(=O)=O)cn1)[C@@H]1CCN(c2ncnc3[nH]ccc23)C1` [Compound 61], 50 to 100%.
Take `CN(c1ccc(C(F)(F)F)nn1)[C@@H]1CCN(c2ncnc3[nH]ccc23)C1` [Compound 62]: the inhibition at 0.3 µM lay within 50 to 100%.
The result for `CN(c1ccnc(Cl)n1)[C@@H]1CCN(c2ncnc3[nH]ccc23)C1` [Compound 63, (R)—N-(1-(7H-pyrrolo[2,3-d]pyrimidin-4-yl)pyrrolidin-3-yl)-2-chloro-N-methylpyrimidin-4-amine] reads 50 to 100%; that for `CN(CCC#N)[C@@H]1CCN(c2ncnc3[nH]ccc23)C1` [Compound 64], 50 to 100%.
In the case of `C#CCN(C)[C@@H]1CCN(c2ncnc3[nH]ccc23)C1` [Compound 65], the inhibition at 0.3 µM fell in the range of 20 to 50%.
The result for `CN(c1ccc(F)cn1)[C@@H]1CCN(c2ncnc3[nH]ccc23)C1` [Compound 66] reads 20 to 50%.
The same measure for `CN(c1ccc(Cl)cn1)[C@@H]1CCN(c2ncnc3[nH]ccc23)C1` [Compound 67]: 50 to 100%; for `CN(c1ccc(Br)cn1)[C@@H]1CCN(c2ncnc3[nH]ccc23)C1` [Compound 68]: 50 to 100%.
Consider `CN(c1ccc([N+](=O)[O-])cn1)[C@@H]1CCN(c2ncnc3[nH]ccc23)C1` [Compound 70], for which the inhibition at 0.3 µM fell in the range of 50 to 100%.
The result for `CN(c1ccc(C#N)cn1)[C@@H]1CCN(c2ncnc3[nH]ccc23)C1` [Compound 71] reads 50 to 100%; that for `Cc1cc(N(C)[C@@H]2CCN(c3ncnc4[nH]ccc34)C2)nc(Cl)c1C#N` [Compound 72], 50 to 100%.
The result for `Cc1cc(Cl)nc(N(C)[C@@H]2CCN(c3ncnc4[nH]ccc34)C2)c1C#N` [Compound 73] reads 50 to 100%; that for `CN(c1ncc([N+](=O)[O-])cc1Cl)[C@@H]1CCN(c2ncnc3[nH]ccc23)C1` [Compound 74], 50 to 100%.
The same measure for `Cc1cc([N+](=O)[O-])cnc1N(C)[C@@H]1CCN(c2ncnc3[nH]ccc23)C1` [Compound 75]: 20 to 50%.
In the case of `CN(c1ccc(C#N)nc1)[C@@H]1CCN(c2ncnc3[nH]ccc23)C1` [Compound 76], the inhibition at 0.3 µM fell in the range of 20 to 50%.
The same measure for `Cc1cc(N(C)[C@@H]2CCN(c3ncnc4[nH]ccc34)C2)ncc1[N+](=O)[O-]` [Compound 77]: 50 to 100%.
The result for `CN(c1ccc([N+](=O)[O-])c(N)n1)[C@@H]1CCN(c2ncnc3[nH]ccc23)C1` [Compound 78] reads 20 to 50%; that for `CN(c1nc(Cl)nc2ccccc12)[C@@H]1CCN(c2ncnc3[nH]ccc23)C1` [Compound 79], 50 to 100%.
As to `CN(c1ncnc2ccccc12)[C@@H]1CCN(c2ncnc3[nH]ccc23)C1` [Compound 80], the inhibition at 0.3 µM is 50 to 100%.
The result for `N#Cc1ccc(N[C@@H]2CCN(c3ncnc4[nH]ccc34)C2)nc1` [Compound 81] reads 50 to 100%.

Usually inhibition stands for the relative decrease from the control value, in per cent.
